From paper PMC3530165 (Chemistry & biology, 2012)
pIC50: −log10 of the molar value. Like-named read-outs stand apart in the source and are kept apart here.

Target: C619A GlcB (malate synthase) (Mycobacterium tuberculosis, UniProt P9WK17, C619A)

Structure (SMILES) | pIC50 | pIC50 (read-out: IC50 against GlcB)
Cc1ccc(C(=O)CC(=O)C(=O)O)cc1 [Compound 8] | 5.22 | 5.24
O=C(O)C(=O)CC(=O)c1cccc(Cl)c1 [Compound 6] | 6.77 | –
O=C(O)C(=O)CC(=O)c1ccccc1Cl [Compound 3] | 6.30 | –
O=C(O)C(=O)CC(=O)c1ccc(Br)cc1 [Compound 9] | 5.24 | 5.22
O=C(O)C(=O)CC(=O)c1ccccc1F [Compound 2] | 6.62 | –
